From ChEMBL document CHEMBL1201862, “PubChem BioAssay data set” (2004)
Calls of active or inactive are those of the source.

Tests used:
[1] = HEK-293T cell viability reduction – luminescence, B-cell screen hits, cytotoxicity control for BCR NF-kB inhibitor project, dose response (AID 489021); assay type: functional, cell-based;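 note: HEK-293T cells carrying an NF-kB luciferase reporter; cells exposed to compound for about 14 hours before viability readout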
[2] = target: Glyceraldehyde-3-phosphate dehydrogenase (Homo sapiens, UniProt P04406)
Sequence of Glyceraldehyde-3-phosphate dehydrogenase (P04406 whole entry): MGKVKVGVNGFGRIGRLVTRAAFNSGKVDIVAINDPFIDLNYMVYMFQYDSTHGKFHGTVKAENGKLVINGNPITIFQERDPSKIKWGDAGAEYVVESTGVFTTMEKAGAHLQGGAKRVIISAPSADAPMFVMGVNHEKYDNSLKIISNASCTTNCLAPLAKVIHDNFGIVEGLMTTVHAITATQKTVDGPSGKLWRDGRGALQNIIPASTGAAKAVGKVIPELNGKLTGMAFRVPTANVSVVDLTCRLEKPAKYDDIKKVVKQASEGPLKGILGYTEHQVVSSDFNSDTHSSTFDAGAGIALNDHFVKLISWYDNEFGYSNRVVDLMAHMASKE

[3] = target: T1, Alkaline phosphatase, tissue-nonspecific isozyme (Homo sapiens, UniProt P05186); assay: potency against alkaline phosphatase TNAP – biochemical, luminescent, dose response, SAR follow-up (AID 1056)
T1 sequence (P05186 whole entry): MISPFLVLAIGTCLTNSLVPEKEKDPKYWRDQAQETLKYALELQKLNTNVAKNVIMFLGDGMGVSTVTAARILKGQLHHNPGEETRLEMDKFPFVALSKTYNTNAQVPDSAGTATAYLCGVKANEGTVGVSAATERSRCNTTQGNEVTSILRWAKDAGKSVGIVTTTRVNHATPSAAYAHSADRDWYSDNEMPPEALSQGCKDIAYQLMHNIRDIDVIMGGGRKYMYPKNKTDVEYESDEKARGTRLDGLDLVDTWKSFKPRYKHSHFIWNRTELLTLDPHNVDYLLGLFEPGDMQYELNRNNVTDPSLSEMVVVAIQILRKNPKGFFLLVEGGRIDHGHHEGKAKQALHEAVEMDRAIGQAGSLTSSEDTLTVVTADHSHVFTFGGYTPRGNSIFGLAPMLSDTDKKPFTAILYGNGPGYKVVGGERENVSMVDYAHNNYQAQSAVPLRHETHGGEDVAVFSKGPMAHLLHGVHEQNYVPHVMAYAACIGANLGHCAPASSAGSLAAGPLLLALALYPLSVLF

Cytochrome P450 2C9 [4] = target: T2, Cytochrome P450 2C9 (Homo sapiens, UniProt P11712); conditions: Potency
T2 sequence (P11712 whole entry): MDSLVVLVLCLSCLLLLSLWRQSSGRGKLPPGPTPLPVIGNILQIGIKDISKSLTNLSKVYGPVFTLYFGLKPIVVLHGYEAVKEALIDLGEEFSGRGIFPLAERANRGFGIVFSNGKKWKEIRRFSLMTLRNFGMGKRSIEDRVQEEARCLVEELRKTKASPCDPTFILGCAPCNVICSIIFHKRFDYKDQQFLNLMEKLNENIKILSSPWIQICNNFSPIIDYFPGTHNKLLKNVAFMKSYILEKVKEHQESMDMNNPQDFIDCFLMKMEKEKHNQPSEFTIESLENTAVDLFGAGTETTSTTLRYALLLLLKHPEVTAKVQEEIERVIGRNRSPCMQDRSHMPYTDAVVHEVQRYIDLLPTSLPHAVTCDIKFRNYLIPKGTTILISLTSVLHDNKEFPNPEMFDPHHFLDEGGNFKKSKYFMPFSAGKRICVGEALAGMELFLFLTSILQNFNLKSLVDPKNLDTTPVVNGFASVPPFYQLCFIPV

Vero = assay: host cell viability loss, Vero E6 – synthesized analogs, cytotoxicity control for West Nile virus antiviral project, SAR follow-up (AID 2244); assay type: functional; conditions: Chlorocebus sabaeus
Cytochrome P450 2C19 = Cytochrome P450 2C19 (Homo sapiens, UniProt P33261); assay: Cytochrome panel assay with activity outcomes. Panel member name: p450-cyp2c19 Compounds with AC50 equal or less than 10 uM are considered active; assay type: functional; conditions: read-out: AC50
Sequence of Cytochrome P450 2C19 (P33261 whole entry): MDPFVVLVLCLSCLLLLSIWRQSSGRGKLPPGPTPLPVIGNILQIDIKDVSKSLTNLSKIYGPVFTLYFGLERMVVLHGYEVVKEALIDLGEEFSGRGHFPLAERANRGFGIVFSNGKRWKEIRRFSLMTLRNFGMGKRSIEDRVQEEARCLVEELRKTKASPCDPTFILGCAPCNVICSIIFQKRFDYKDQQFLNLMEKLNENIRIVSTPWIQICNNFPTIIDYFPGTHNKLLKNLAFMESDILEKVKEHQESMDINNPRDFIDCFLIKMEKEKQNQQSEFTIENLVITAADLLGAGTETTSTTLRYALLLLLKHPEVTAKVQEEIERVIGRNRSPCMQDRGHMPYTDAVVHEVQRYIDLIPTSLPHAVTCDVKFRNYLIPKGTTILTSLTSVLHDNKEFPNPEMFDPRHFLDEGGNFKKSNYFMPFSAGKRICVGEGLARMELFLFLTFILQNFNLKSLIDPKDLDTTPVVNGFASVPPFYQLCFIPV

Cytochrome P450 2D6 = Cytochrome P450 2D6 (Homo sapiens, UniProt P10635);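 note: CYP2D6 member of a cytochrome P450 panel assay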
Sequence of Cytochrome P450 2D6 (P10635 whole entry): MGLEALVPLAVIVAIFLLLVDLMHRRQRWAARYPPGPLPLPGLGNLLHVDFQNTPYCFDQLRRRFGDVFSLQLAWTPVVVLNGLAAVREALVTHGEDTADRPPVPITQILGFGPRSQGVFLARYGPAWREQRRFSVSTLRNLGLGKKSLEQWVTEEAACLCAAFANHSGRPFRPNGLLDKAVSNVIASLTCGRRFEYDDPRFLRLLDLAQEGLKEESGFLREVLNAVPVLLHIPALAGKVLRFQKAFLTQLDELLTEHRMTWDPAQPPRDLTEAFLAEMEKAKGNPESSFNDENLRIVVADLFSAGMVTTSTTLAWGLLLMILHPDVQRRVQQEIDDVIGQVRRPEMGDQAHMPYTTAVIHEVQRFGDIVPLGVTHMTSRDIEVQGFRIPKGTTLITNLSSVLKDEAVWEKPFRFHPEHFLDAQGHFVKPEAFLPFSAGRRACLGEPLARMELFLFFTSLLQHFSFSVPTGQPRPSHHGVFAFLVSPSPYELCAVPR

[5] = HEK-293T viability loss after treatment – luminescence, T-cell screen hits, cytotoxicity control for TCR NF-kB inhibitor project, dose response (AID 489026); assay type: functional, cell-based;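 note: cells exposed to compound about 14 hours before the viability readout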
[6] = test system: Streptococcus sp. 'group A'; assay: Streptococcus pyogenes SK(-)GAS viability under kanamycin – luminescence, BacTiterGlo, confirmation, counter-screen for streptokinase expression inhibitor project, dose response (AID 1900); assay type: functional, organism-based
Streptococcus = assay: GAS UMAA2166 growth inhibition – luminescence, BacTiterGlo, counter-screen for streptokinase expression inhibitor project, dose response (AID 1915); assay type: functional, organism-based;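 note: potency for reduction of bacterial viability or growth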
[7] = THP-1 cell cytotoxicity, dose response, cytotoxicity control for non-replicating M. tuberculosis project (AID 489025); assay type: functional
[8] = HepG2 cell cytotoxicity, dose response, cytotoxicity control for non-replicating M. tuberculosis project (AID 489018); assay type: functional; conditions: Mycobacterium tuberculosis
[9] = Vero E6 cell cytotoxicity, dose response, cytotoxicity control for non-replicating M. tuberculosis project, secondary assay (AID 492998); assay type: functional, VeroE6; conditions: Vero C1008
cells = assay type: functional
Cytochrome P450 2C9 [10] = target: T2, Cytochrome P450 2C9
[11] = Trypanosoma cruzi growth suppression in host cells – NIH3T3 host cells, beta-gal luminescence, confirmation (AID 2044); assay type: functional, cell-based;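 note: intracellular parasites grown in NIH/3T3 mouse fibroblasts as host cells; luminescent beta-galactosidase reporter signal from transgenic T. cruzi replicating inside host cells; inhibitors lower the luminescence signal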
[12] = NIH3T3 cell viability loss – ATP luminescence, mouse fibroblasts, counter-screen, dose response (AID 2010); assay type: functional, cell-based;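 note: cells exposed to compound for about 90 hours before reading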
[13] = target: Voltage-dependent T-type calcium channel subunit alpha-1H (Homo sapiens, UniProt O95180); assay type: functional;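 note: channel activity triggered by adding a high calcium stimulation buffer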
Sequence of Voltage-dependent T-type calcium channel subunit alpha-1H (O95180 whole entry): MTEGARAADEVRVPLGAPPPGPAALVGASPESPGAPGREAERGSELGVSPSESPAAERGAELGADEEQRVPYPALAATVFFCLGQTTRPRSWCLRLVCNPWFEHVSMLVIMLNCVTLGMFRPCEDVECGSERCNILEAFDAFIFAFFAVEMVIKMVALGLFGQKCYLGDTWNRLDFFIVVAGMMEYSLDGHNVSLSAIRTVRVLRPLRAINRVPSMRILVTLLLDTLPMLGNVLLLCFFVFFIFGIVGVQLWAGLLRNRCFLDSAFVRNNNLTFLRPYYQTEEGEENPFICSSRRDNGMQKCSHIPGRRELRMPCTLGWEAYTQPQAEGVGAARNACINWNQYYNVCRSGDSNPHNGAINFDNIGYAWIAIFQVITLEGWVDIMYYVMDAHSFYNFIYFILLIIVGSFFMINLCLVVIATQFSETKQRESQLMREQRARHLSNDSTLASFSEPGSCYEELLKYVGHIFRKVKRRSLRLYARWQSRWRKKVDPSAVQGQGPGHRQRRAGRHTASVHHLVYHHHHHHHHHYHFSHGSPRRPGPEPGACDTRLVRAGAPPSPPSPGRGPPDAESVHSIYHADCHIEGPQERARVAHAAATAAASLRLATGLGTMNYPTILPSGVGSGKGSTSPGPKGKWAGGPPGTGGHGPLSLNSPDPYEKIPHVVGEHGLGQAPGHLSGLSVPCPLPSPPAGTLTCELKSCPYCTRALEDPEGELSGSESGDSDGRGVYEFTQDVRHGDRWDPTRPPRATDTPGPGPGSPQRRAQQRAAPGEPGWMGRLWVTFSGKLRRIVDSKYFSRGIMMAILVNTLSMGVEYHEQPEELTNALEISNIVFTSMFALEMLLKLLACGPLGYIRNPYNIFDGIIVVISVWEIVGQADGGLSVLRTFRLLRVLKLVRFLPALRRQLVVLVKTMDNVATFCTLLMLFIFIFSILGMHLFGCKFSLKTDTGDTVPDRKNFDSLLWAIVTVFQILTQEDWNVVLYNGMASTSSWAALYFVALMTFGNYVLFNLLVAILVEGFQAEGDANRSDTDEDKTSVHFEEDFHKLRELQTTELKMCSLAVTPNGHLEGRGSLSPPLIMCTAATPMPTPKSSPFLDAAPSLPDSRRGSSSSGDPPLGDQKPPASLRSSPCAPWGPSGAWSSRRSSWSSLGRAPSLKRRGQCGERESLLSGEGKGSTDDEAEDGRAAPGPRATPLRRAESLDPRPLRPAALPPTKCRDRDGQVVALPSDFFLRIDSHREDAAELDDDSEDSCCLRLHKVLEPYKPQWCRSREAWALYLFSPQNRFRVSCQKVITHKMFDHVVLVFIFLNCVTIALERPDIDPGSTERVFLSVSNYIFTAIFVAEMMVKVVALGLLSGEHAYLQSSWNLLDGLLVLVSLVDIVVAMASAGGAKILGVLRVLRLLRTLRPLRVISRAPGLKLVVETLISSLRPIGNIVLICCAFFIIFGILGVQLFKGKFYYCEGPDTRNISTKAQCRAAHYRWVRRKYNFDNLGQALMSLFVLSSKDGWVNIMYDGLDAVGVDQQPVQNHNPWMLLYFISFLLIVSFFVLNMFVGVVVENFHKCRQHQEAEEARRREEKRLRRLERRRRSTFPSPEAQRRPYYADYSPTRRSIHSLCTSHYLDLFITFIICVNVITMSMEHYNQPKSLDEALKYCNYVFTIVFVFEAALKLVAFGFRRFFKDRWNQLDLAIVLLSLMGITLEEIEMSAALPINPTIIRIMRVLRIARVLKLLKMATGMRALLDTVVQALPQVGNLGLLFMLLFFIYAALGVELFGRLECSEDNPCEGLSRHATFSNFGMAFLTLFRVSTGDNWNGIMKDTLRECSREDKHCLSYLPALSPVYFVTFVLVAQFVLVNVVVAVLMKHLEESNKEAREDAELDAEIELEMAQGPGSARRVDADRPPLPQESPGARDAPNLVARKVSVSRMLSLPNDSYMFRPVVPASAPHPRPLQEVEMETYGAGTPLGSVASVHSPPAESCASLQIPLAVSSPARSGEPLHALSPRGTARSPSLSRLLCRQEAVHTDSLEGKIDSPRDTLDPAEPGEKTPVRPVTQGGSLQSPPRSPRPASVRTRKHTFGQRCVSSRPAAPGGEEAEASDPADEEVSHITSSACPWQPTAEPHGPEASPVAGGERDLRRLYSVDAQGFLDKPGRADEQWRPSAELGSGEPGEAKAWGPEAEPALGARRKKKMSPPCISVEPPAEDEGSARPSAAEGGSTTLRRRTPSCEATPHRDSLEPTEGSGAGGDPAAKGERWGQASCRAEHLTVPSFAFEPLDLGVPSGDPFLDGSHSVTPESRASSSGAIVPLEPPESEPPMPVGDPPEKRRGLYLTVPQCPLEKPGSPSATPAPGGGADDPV

HEK293 [14] = assay: cells; conditions: Homo sapiens
HEK293 [15] = assay: cells; conditions: Homo sapiens; remark: listed apart in the source
Estrogen receptor = target: T3, Estrogen receptor (Homo sapiens, UniProt P03372);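 note: potency for inhibiting coactivator peptide recruitment to the receptor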
T3 sequence (P03372 whole entry): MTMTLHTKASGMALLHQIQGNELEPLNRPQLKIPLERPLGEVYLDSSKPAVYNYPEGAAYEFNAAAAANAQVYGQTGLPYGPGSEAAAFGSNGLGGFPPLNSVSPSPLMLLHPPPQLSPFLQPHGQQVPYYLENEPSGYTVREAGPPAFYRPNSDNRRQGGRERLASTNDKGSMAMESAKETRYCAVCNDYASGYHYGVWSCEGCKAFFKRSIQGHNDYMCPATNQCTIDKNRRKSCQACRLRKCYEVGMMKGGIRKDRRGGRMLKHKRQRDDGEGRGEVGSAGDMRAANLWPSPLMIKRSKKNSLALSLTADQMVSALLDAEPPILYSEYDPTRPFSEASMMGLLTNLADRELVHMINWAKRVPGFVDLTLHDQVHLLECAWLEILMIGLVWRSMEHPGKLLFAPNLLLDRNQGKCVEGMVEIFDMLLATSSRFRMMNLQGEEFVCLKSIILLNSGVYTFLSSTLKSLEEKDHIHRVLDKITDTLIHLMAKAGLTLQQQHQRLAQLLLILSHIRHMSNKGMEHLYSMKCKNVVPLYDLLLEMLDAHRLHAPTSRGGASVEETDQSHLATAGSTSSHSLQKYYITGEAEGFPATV

fMet-Leu-Phe receptor = target: T4, fMet-Leu-Phe receptor (Homo sapiens, UniProt P21462); assay: formyl peptide receptor binders – dose response (AID 519); assay type: functional
T4 sequence (P21462 whole entry): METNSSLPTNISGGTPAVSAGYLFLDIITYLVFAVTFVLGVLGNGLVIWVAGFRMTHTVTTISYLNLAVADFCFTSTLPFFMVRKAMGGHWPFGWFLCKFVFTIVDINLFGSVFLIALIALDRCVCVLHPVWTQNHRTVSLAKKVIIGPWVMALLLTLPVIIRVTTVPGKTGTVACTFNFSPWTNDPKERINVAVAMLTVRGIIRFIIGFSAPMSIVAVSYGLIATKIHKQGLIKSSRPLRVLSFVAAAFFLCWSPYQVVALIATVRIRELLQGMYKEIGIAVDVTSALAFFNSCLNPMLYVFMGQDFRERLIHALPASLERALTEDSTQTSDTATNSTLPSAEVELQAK

[16] = target: Potassium voltage-gated channel subfamily KQT member 2 (Rattus norvegicus, UniProt O88943, W236L); assay: potentiation of rat KCNQ2 current – cell-based, automated electrophysiology, mechanism study for KCNQ2 potentiator project, dose response (AID 2603); assay type: functional
Sequence of Potassium voltage-gated channel subfamily KQT member 2 (O88943 whole entry W236L): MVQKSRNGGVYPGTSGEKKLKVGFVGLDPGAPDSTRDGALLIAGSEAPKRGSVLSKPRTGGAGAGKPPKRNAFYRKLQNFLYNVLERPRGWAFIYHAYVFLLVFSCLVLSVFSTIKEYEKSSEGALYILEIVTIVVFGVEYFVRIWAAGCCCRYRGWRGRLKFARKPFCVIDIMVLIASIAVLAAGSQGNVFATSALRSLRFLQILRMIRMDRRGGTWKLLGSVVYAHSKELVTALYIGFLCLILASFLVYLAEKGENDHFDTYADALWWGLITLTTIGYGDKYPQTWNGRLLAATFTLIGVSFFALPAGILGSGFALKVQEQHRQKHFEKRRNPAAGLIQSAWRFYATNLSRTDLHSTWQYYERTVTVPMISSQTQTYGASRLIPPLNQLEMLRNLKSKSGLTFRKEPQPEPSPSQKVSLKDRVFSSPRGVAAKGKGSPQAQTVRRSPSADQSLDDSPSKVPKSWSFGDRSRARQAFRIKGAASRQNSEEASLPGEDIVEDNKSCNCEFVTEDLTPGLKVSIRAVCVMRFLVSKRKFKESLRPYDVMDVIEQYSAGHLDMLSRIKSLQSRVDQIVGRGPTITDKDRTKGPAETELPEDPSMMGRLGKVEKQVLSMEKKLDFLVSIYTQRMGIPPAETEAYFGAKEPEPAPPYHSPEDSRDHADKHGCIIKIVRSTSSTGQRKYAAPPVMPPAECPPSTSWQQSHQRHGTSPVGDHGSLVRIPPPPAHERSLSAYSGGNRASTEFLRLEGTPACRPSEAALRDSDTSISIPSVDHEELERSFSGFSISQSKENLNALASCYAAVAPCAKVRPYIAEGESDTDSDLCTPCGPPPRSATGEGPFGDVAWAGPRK

[17] = target: T5, Replicative DNA helicase DnaB (Mycobacterium tuberculosis, UniProt P9WMR3); assay: DnaB intein splicing inhibitors, dose response, biochemical, cell-free fluorescence (AID 449749); assay type: functional
T5 sequence (P9WMR3 whole entry): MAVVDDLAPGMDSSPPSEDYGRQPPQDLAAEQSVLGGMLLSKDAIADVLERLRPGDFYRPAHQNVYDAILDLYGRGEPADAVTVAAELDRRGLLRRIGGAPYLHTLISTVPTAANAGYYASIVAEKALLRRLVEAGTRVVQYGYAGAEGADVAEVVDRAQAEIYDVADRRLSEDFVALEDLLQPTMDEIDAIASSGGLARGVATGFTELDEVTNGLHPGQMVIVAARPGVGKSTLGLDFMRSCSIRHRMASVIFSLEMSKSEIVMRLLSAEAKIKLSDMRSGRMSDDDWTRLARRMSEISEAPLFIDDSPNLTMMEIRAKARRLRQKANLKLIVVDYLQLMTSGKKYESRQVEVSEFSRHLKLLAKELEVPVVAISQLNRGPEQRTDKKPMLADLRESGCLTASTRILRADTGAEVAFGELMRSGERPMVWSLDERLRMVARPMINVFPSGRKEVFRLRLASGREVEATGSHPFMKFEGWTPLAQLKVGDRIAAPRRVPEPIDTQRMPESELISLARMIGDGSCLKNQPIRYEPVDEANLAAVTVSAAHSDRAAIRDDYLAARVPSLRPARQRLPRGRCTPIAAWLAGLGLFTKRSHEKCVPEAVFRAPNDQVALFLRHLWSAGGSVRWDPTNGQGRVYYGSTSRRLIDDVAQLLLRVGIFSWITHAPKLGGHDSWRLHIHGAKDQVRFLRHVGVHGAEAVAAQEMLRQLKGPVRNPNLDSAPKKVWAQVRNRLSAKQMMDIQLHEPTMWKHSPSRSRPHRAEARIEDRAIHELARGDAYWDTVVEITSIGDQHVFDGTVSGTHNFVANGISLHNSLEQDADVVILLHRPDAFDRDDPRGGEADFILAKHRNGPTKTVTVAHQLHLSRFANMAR

Protein RecA = target: T6, Protein RecA (Mycobacterium tuberculosis, UniProt P9WHJ3); assay: Fluorescence Cell-Free Homogeneous Dose Retest to Identify Inhibitors of RecA-Intein Splicing Activity. [Related pubchem assays (depositor defined):AID2097, AID2223, AID489010, AID492950]; assay type: functional
T6 sequence (P9WHJ3 whole entry): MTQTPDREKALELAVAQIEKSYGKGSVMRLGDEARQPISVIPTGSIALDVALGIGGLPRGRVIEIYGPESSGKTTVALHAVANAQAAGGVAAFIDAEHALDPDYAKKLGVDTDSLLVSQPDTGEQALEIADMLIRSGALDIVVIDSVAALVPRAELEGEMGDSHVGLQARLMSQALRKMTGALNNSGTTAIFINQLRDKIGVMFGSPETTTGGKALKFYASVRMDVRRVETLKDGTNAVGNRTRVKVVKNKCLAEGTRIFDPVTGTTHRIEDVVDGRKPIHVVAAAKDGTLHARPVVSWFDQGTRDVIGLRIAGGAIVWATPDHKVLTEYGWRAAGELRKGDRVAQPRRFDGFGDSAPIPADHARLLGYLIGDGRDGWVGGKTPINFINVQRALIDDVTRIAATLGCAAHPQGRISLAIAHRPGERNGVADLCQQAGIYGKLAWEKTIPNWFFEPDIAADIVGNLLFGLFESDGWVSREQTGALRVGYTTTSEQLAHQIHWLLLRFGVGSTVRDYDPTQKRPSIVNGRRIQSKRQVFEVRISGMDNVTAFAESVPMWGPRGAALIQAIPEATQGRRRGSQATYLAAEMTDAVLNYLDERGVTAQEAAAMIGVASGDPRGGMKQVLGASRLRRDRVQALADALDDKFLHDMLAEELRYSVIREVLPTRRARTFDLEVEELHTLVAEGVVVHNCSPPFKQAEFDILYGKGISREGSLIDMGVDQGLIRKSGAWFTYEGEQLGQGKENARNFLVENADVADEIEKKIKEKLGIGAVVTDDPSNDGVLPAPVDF

For O=C(NCCCN1CCOCC1)c1cc(-c2ccc(Br)cc2)on1, the IC50 [1] was > 80 µM (inactive).

With O=S(=O)(Nc1cnc2ccccc2c1)c1cc(Cl)ccc1F the IC50 [2] was > 100 µM (not active) and the IC50 [3] was 4.26 µM (active).

For O=C(O)c1cc(-c2ccccc2O)n[nH]1, the IC50 [2] was > 100 µM (not active) and the IC50 [3] was > 100 µM (inactive).

With CCCCC#CC1C=CC(Oc2ccc(C(=O)OC)cc2)C(COC(=O)OCC)O1 (stereo not drawn) the AC50 (Cytochrome P450 2C9 [4]) was 3.16 µM (inconclusive).

With COc1ccc(-c2csc(NC(=O)c3cccc(Cl)c3)n2)cc1 the CC50 (Vero) was > 40 µM (active).

With CCCNC(=O)c1cc2c(C(F)(F)F)nn(C)c2s1 the AC50 (Cytochrome P450 2C19) was 31.6 µM (inconclusive) and the AC50 (Cytochrome P450 2D6) was “inconclusive”.

For CC(=O)Nc1ccc(S(=O)(=O)N2CCCc3ccccc32)cc1, the IC50 [5] was > 80 µM (inactive).

With CN(c1ccccc1)S(=O)(=O)c1ccc(C(=O)Nc2nnc(-c3ccc(F)cc3)o2)cc1 the EC50 [6] was 0.159 µM (active), the EC50 (Streptococcus) was 2.93 µM (active) and the CC50 [7] was 17.2 µM (active). For the same compound, the CC50 [8] was 15.6 µM (active), the CC50 [9] was 7.81 µM (active) and the IC50 (cells) was > 50 µM (active).

In the case of Cc1ccc(S(=O)(=O)Nc2cnc3ccccc3c2)c(C)c1C, the IC50 [2] was > 100 µM (not active) and the IC50 [3] was > 100 µM (inactive).

In the case of O=C(O)c1ccc(/C=N\N=C2c3ccccc3-c3ccccc32)cc1, the AC50 (Cytochrome P450 2C9 [10]) was 7.94 µM (inconclusive) and the AC50 (Cytochrome P450 2D6) was “inconclusive”.

For CCC(C)(C)n1nnnc1C(c1ccc(C)cc1)N(Cc1ccco1)Cc1cccs1 (stereo not drawn), the EC50 [11] was 2.86 µM (active), the EC50 [12] was > 60 µM (not active) and the EC50 [13] was 6.74 µM (active). For the same compound, the EC50 (HEK293 [14]) was > 59.6 µM (inactive) and the EC50 (HEK293 [15]) was > 59.6 µM (inactive).

For O=C(CSc1nc2ccccc2c(=O)n1-c1ccc(F)cc1)Nc1ccc2c(c1)OCCO2, the CC50 (Vero) was > 40 µM (active).

In the case of CCCCC1C(=O)N(c2ccccc2)N(c2ccccc2)C1=O [PHENYLBUTAZONE], the IC50 (Estrogen receptor) was > 50 µM (not active), the Ki (fMet-Leu-Phe receptor) was 5.3 µM (active) and the AC50 (Cytochrome P450 2C9 [4]) was 31.6 µM (inconclusive).

With CC(C)c1nnc(NC(=O)c2nc(S(=O)(=O)Cc3ccccc3F)ncc2Cl)s1 the EC50 [16] was 8.4 µM (active), the AC50 [17] was 4.25 µM (active) and the EC50 (Protein RecA) was 3.16 µM (active).

For COc1ccc(C#CC2C=CC(Oc3cc(C)cc(C)c3)C(CO)O2)cc1 (stereo not drawn), the AC50 (Cytochrome P450 2C9 [4]) was 2 µM (inconclusive).
